Laboratory results as given in BigSolDB 2.1.

CC(C)C[C@H](NC(=O)OCC1c2ccccc2-c2ccccc21)C(=O)O
solubility (mole fraction)
Conditions | in acetone | in acetonitrile | in ethanol | in ethyl acetate | in isopropanol | in methanol | in methyl acetate | in n-butanol | in n-propanol
283.15 K | 0.0724 | 0.00333 | 0.0256 | 0.0468 | 0.0166 | 0.0288 | 0.0246 | 0.0198 | 0.0218
288.15 K | 0.0773 | 0.00382 | 0.0284 | 0.0496 | 0.0185 | 0.033 | 0.0279 | 0.0216 | 0.0245
293.15 K | 0.0838 | 0.0047 | 0.0324 | 0.0536 | 0.0209 | 0.0384 | 0.0318 | 0.0258 | 0.0278
298.15 K | 0.0927 | 0.0055 | 0.0379 | 0.0607 | 0.0272 | 0.0455 | 0.0372 | 0.0295 | 0.0317
303.15 K | 0.101 | 0.00689 | 0.0443 | 0.0692 | 0.0352 | 0.0543 | 0.0428 | 0.0354 | 0.0372
308.15 K | 0.108 | 0.00832 | 0.0522 | 0.0782 | 0.0441 | 0.0621 | 0.0487 | 0.0456 | 0.0464
313.15 K | 0.117 | 0.0104 | 0.0614 | 0.0862 | 0.0551 | 0.0771 | 0.0554 | 0.0565 | 0.0574
318.15 K | 0.131 | 0.0126 | 0.0716 | 0.0961 | 0.0687 | 0.106 | 0.063 | 0.0687 | 0.0691
323.15 K | 0.142 | 0.0166 | 0.0854 | 0.106 | 0.0844 | 0.137 | 0.0711 | 0.086 | 0.0853
